Test results: patent US20090324509A1, “INSECTICIDAL COMPOSITION” (LIVIE BIOPESTICIDES LIMITED, priority 2006, published 2009)

Columns and labels:
Type in all cases: in vivo
[1] = system: Deer Tick (Ixodes ricinus); test: Potter tower spray bioassay on adult arthropods, mortality; details: 1.0 ml/pot, adults, room temperature; % of negative control
Procedure: (§1) The IGR's Methoprene and Diflubenzuron were sources as WHO standard preparations at 20 mg/l technical from WHO, Geneva, and used as positive controls or mixtures (50:50) with 5.0% p-cymene.
(§2) Laboratory colonies of the cat flea (Ctenocephalides felis) and the Deer Tick (Ixodes ricinus) were used in bioassays undertaken at room temperature.
(§3) Bioassays consisted of plastic pots with a netting cover holding batches of 10 adult insects of each species being placed under a potter tower which then sprayed a fine particulate aerosol of even rate. Application rates were always 1.0 ml/pot which is sufficient to wet the inner surface without leaving free liquid residues. After exposure to the treatment or a 5% ethanol control, arthropods were then transferred to a clean plastic holding pot and held at room temperature for 3 days with mortality scored after 24 & 72 hours. Mortality was calculated as % of negative control.

[2] = system: cat flea (Ctenocephalides felis); test: as above; details: 1.0 ml/pot, adults, room temperature; % of negative control
Procedure: as §1, §2, §3

[3] = system: a range of pests including Musca domestica, Periplaneta Americana, Blatella germanica and others; test: Tests of insecticidal activity of p-cymene against a range of pests; details: 15 listed pest species

For `Cc1ccc(C(C)C)cc1` [p-cymene], which 24 hours mortality [1] is on record?
The 24 hours mortality was 28%.

And the 72 hours mortality [1]?
Its 72 hours mortality is 55%.

What about the 24 hours mortality [2] of the same molecule?
The 24 hours mortality was 76%.

What about the 72 hours mortality [2] of the same molecule?
The 72 hours mortality was 88%.

And the insecticidal activity [3]?
Its insecticidal activity is “broad spectrum insecticidal activity”.
